Measurements published in US20250194593A1, “PESTICIDAL COMPOSITIONS COMPRISING PENTANAL AND USES THEREOF” (MIGAL GALILEE RESEARCH INSTITUTE LTD., priority 2022, published 2025).

Legend:
[1] = test system: Penicillium expansum spores; experiment: effect of different volatiles on viability of spores (CFU); type: cell-based; conditions: 0.9, 1.8 or 18 μL/L
Procedure: FIGS. 4A-4B are bar graphs representing antifungal activity of different VOCs. FIG. 4A represents the effect of Butyl acetate (B) Hexyl acetate (H), Isoamyl acetate (I), Trans-2-Hexanal (T), and Pentanal (P) and Control (C) at the concentrations of 1.8 μL/L or 18 μL/L on Penicillium expansum spores (CFU). Different letters represent significant differences between treatments (p<0.05). A-C-1.8 μL/L, a-c-18 μL/L 1.8. FIG. 4B represents the effect of different volatiles Hexyl acetate (H), Trans-2-Hexanal (T), Pentanal (P), Hexanal (He) and Control (C) at the concentrations of 0.9 μL/L, 1.8 μL/L or 18 μL/L on Penicillium expansum spores (CFU). Different letters represent significant differences between treatments (p<0.05). A-C-1.8 μL/L, a-c-18 μL/L 1.8.
The inventors additionally examined the effect of different volatiles on the viability of Penicillium expansum spores. The volatiles tested were: Butyl acetate, Hexyl acetate, Isoamyl acetate, […] and they were compared to Pentanal at two different concentrations (1.8 μL/L or 18 μL/L). Furthermore, the inventors examined lower concentration (0.9 μL/L) for the following VOCs hexanal, trans-hexenal, and hexyl acetate on Penicillium expansum spores (CFU).

Alternaria alternata = experiment: Petri dish with PDA inoculated with fungi spores exposed to pentanal vapors; type: cell-based; conditions: pentanal vapors about 18 ppm; vs untreated plates
Text: (§1) FIGS. 1A-1C are images representing inhibition of various plant pathogens Alternaria alternata (1A), Botrytis cinerea (1B), and Penicillium expansum (1C) by pentanal vapors at a concentration of 18 ppm. The inventors tested anti-fungal efficiency of pentanal vapors by exposing various fruits pathogens (e.g., Alternaria, Botrytis, and Penicillium species) to pentanal vapors at a concentration of about 18 ppm. Fruit (in vivo) or Petri dish with PDA (in vitro) inoculated with fungi spores (10^3-10^6 spores/ml) were exposed to pentanal vapors at concentrations of 10-100 ppm for 24 hr. after which the samples were aired and incubated until the pathogens developed in the untreated samples which served as control. The results of this experiment are represented in FIG. 1.

Penicillium expansum [2] = experiment: as above; type: cell-based; conditions: pentanal vapors about 18 ppm; vs untreated plates
Text: as §1

Botrytis cinerea [3] = experiment: as above; type: cell-based; conditions: pentanal vapors about 18 ppm; vs untreated plates
Text: as §1

[4] = test system: Penicillium expansum spores; experiment: spores incubated on PDA plates, then exposed to pentanal vapors for 24 hr; type: cell-based
Procedure: The effect of incubation period (hours) of Penicillium expansum spores on PDA plates followed by exposure to pentanal vapors (1.8 ppm, or 18 ppm) for 24 hr was examined.

[5] = test system: Penicillium expansum and/or Botrytis cinerea; experiment: storage shelf-life of inoculated fruit and vegetables exposed to pentanal vapors; type: in vivo; conditions: strawberries
Text: Furthermore, the inventors tested the storage shelf-life of various inoculated fruit and vegetables species, such as: apples, pears, strawberries, lichi, cucumbers, citrus fruits, grapes under similar storage conditions upon exposure thereof to pentanal vapors. The fruits have been inoculated with Penicillium expansum and/or Botrytis cinerea spores and exposed to pentanal vapors at a concentration ranging between 30 and 100 ppm during the cold storage. […] The exact preservative effective amount of pentanal vapors varies dependent on the specific fruit specie, for example strawberries require higher concentration of pentanal, about 80-100 ppm.

[6] = pentanal release rate into the ambient air from compositions; type: physicochemical; conditions: release of 50% of the initial pentanal amount into the ambient air
Text: The inventors further calculated pentanal release rate into the ambient air from various compositions of the invention and compared the release rate to neat pentanal (liquid), as a negative control. Table 1 presents the time period required for release of 50% of the initial pentanal amount.

Penicillium expansum [7] = experiment: electron microscopy of mycelium and spores treated with pentanal; type: cell-based; conditions: pentanal treated vs untreated
Procedure: FIGS. 2A-2C are micrographs presenting the effect of pentanal vapors (lower panel) on the mycelium (2A), conidia (2B), and spores (2C) of Penicillium expansum, as compared to untreated counterparts (upper panel). White arrows represent damage of Penicillium expansum upon exposure to pentanal vapors. Mycelium and spores of Penicillium expansum treated and untreated with pentanal were analyzed using electronic microscope. Untreated mycelium and the spores of Penicillium expansum developed normally (FIG. 2, upper panel) while the Pentanal treated samples were impaired, the round structure of the mycelium was altered and along the mycelium damaged sites were observed (FIG. 2A). The conjugation sites of the spores in conidiophore were also damaged (FIG. 2B), and ruptures were visible on the spores' surface (FIG. 2C).

[8] = test system: pathogen related decay (spoilage) of fruits (pears, strawberries and mandarins); experiment: decay of fruits exposed to pentanal and stored; type: in vivo; conditions: 10 to 30 ppm pentanal; stored in a cold room and/or at 20° C.
Procedure: Furthermore, various fruits (e.g. pears, strawberries and mandarins) have been exposed to between 10 and 30 ppm of pentanal (e.g. in a form of vapors, or by contacting thereof with an appropriate amount of any one of the composition of the invention). Upon exposure, the treated fruits have been stored for different time periods (in a cold room and/or at 20° C.). Subsequently, the decay of treated fruits has been examined and compared to untreated fruits.

Penicillium expansum [9] = experiment: rot development on inoculated pears after cold storage; type: in vivo; conditions: pentanal vapors 18 ppm; 10^3-10^5 spores; 2 months of cold storage (0° C.)
Procedure: (§2) FIGS. 3A-3B are bar graphs representing the development of rots (in mm) on pears that were inoculated with Penicillium expansum (3A) and Botrytis cinera (3B) spores. Pears were inoculated with different concentrations of Penicillium expansum spores: 10^3 spores (A); 10^4 spores (B); 10^5 spores (C). The diameter of rots (in mm) was assessed after 2 months of cold storage (at 0° C.). The graphs represent untreated pears versus pears treated by pentanal vapors (18 ppm).
(§3) The decay was measured after 2 months of cold storage (0° C.).

Botrytis cinerea [10] = experiment: as above; type: in vivo; conditions: pentanal vapors 18 ppm; 2 months of cold storage (0° C.)
Procedure: as §2, §3

Which results are given for CCCCC=O [Pentanal]?
anti-fungal activity (CFU) compared to other VOCs [1]: significantly enhanced anti-fungal activity; fungal growth in petri dish (Alternaria alternata): completely prevented fungal growth; fungal growth in petri dish (Penicillium expansum [2]): completely prevented fungal growth; fungal growth in petri dish (Botrytis cinerea [3]): completely prevented fungal growth; fungal colonies 6 days after exposure ([4]; pentanal vapors 1.8 ppm for 24 hr): no fungal colonies were detected; fungal colonies 6 days after exposure ([4]; pentanal vapors 18 ppm for 24 hr): no fungal colonies were detected; shelf-life of inoculated fruits and vegetables vs non-treated controls ([5]; pentanal vapors 30 to 100 ppm during cold storage, apples, pears, lichi, cucumbers, citrus fruits, grapes): significantly prolong the shelf-life; preservative effective amount of pentanal vapors [5]: 80-100 ppm; Time (min) until 50% release [6]: 5 min; damage to mycelium, conidiophore and spores (electron microscope) (Penicillium expansum [7]): physical damage; decay of treated fruits compared to untreated fruits [8]: prevention pathogen related decay (spoilage); decay development in inoculated pears (Penicillium expansum [9]): significantly delayed decay development; decay development in inoculated pears (Botrytis cinerea [10]): significantly delayed decay development
